Experimental data as given in patent publication US12312292B2, “Long chain alkyl esteramine lipid compound, preparation method therefor and application thereof in nucleic acid delivery” (RinuaGene Biotechnology Co., Ltd., priority 2022, dated 2025).

Key:
luciferase mRNA = assay: Detection of reporter gene (luciferase mRNA) expression in mice in vivo; parameters: species or system BALB/c female mice; settings: LNP-delivered luciferase mRNA, quadriceps muscle injection, IVIS 24 h after injection; dose (5 or 14 μg mRNA) not given
Experimental: The prepared LNP-encapsulated mRNA solution was diluted with PBS buffer to obtain the solution for injection. BALB/c female mice at about 20 g were injected with injection solution at the quadriceps muscle site of mice with an insulin syringe, and each mouse was injected with 50 μL. Two doses were designed: one dose of “5 μg mRNA per 50 μL of injection solution” and the other dose of “14 μg mRNA per 50 μL of injection solution”. BALB/c female mice at about 20 g are injected with PBS buffer at the quadriceps muscle site of mice with an insulin syringe, and each mouse was injected with 50 μL.
After the mice were injected for 24 h, in vivo expression of Luciferase was detected with Perkinelmer's IVIS. The substrate was D-luciferin Sodium salt (GOLDBIO, LUCNA-1G), which was formulated into a concentration of 15 mg/mL with normal saline, filtered and sterilized with a 0.22 μm filter membrane, and stored at −20° C. in aliquots protected from light. Before imaging, each mouse at about 20 g was intraperitoneally injected with 200 μL of substrate solution for 10-20 minutes, and then was anesthetized with isoflurane gas and placed prone on the imaging plate to detect the fluorescence of the animal in vivo, and the results are shown in Table 2.

SD rat = assay: Liver injury toxicity analysis of lipid molecules in SD rat (serum ALT and AST); format: in vivo; settings: SD rats, 3 mg/kg mRNA encoding Luciferase via tail vein, serum 24 hours after injection; compared with SM102 (FIGS. 4A, 4B)
From the text: In order to further investigate the hepatic injury toxicity of exemplary compounds, we analyze the effect of the compounds of the present invention on serum alanine aminotransferase (ALT) and […] (AST) levels. The experimental 30 SD rats (15 females+15 males, purchased from Zhejiang Weitong Lihua Laboratory Animal Technology Co., Ltd.) were randomly divided into three groups, namely negative control group (PBS), SM102 group, and compound 2 group, each group of […]. According to body weight, each rat was injected with 3 mg/kg of mRNA encoding Luciferase through the tail vein, fasted overnight with supplying water, and whole blood was collected 24 hours after injection, and serum was isolated. The concentration of ALT and AST in the serum of each rat was detected with a fully automated biochemical analyzer, and the test results are shown in FIGS. 4A and 4B.

[1] = In vivo expression distribution analysis of delivered luciferase mRNA (RT-PCR in tissues); parameters: species or system C57BL/6J mice; settings: delivered luciferase mRNA, single intramuscular injection 50 μg, 2 h-336 h, RT-PCR
Experimental: In order to investigate the distribution features of lipid-delivering mRNA in vivo, we analyzed the distribution features of the reporter luciferase mRNA of the compounds of the present invention in C57BL/6J mice after administration by a single intramuscular injection. The experimental 10 C57BL/6J mice were enrolled, male and female, each administered 50 μg, with SM102 as the control.
Animals in the negative control group were collected at 2 h and 336 h after administration, and animals in the test group were collected at 2 h, 6 h, 24 h, 48 h, 72 h, 120 h, 168 h, and 336 h after administration whole blood, bone marrow, liver, spleen, heart, kidney, inguinal lymph nodes, mesenteric lymph nodes, spleen, brain, stomach, small intestine, non-injection site muscle, injection site muscle tissue, etc. The RNA content in the samples at each time point was detected by RT-PCR, and the lower limit of quantification of the method was […] to reflect the distribution features in C57BL/6J mice.

BALB/c female mice = assay: Acute toxicity analysis of lipid molecules (cationic lipid LNP) in BALB/c female mice; settings: blood 24 h after injection, Ave(SD)

CCCCCCCCCCCOC(=O)CCCCCN(CCCCCCO)CCCCCCCC(=O)OC(CCCCCCCC)CCCCCCCC [Example 2]
Average fluorescence intensity (luciferase mRNA): 1.144E+06 P/s/cm^2/sr | Elevation effect on serum ALT and AST (SD rat): significantly lower than these of compound SM102 | Exposure in tissues and organs, from high to low [1]: injection site muscle, inguinal lymph nodes, whole blood, spleen, non-injection site muscle, bone marrow, heart, liver, mesenteric lymph nodes, kidney, small intestine and brain | Alanine aminotransferase (BALB/c female mice; high dose group, 150 μg LNP/pc): 41.54 U/L | Alkaline phosphatase (ALP) (BALB/c female mice; high dose group, 150 μg LNP/pc): 111.86 U/L | Aspartate aminotransferase (BALB/c female mice; high dose group, 150 μg LNP/pc): 124.48 U/L | Creatinine (BALB/c female mice; high dose group, 150 μg LNP/pc): 12.6 µmol/L | Total bilirubin (TBIL) (BALB/c female mice; high dose group, 150 μg LNP/pc): 1.25 | γ-Glutamyltransferase (GGT) (BALB/c female mice; high dose group, 150 μg LNP/pc): 0.20 (0.18) U/L | Alanine aminotransferase (BALB/c female mice; low dose group, 50 μg/pc): 35.32 (2.51) U/L | Alkaline phosphatase (ALP) (BALB/c female mice; low dose group, 50 μg/pc): 113.3 U/L | Aspartate aminotransferase (BALB/c female mice; low dose group, 50 μg/pc): 111.74 U/L | Creatinine (BALB/c female mice; low dose group, 50 μg/pc): 12.6 µmol/L | Total bilirubin (TBIL) (BALB/c female mice; low dose group, 50 μg/pc): 1.22 (0.20) | γ-Glutamyltransferase (GGT) (BALB/c female mice; low dose group, 50 μg/pc): 0.40 (0.37) U/L
